PubChem BioAssay (NCI)
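Compound exposure: 48 hours, 5 concentrations, 96-well plates. Here, GI50 denotes the concentration required for 50% inhibition of growth. The concentration for full growth arrest is given as TGI.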

Columns and labels:
Experiment in all cases: DTP human tumour cell line panel, 48 h
[1] = test system: 786-0 renal
[2] = test system: A498 renal
[3] = test system: A549 NSCLC
[4] = test system: BT-549 breast
[5] = test system: CAKI-1 renal
[6] = test system: CCRF-CEM leukemia
[7] = test system: COLO 205 colon
[8] = test system: DU-145 prostate
[9] = test system: EKVX NSCLC
[10] = test system: HCT-116 colon
[11] = test system: HL-60(TB) leukemia
[12] = test system: HOP-62 NSCLC
[13] = test system: HOP-92 NSCLC
[14] = test system: HS 578T breast
[15] = test system: HT29 colon
[16] = test system: IGROV1 ovarian
[17] = test system: K-562 leukemia
[18] = test system: KM12 colon
[19] = test system: LOX IMVI melanoma
[20] = test system: M14 melanoma
[21] = test system: MALME-3M melanoma
[22] = test system: MCF7 breast
[23] = test system: MDA-MB-231 breast
[24] = test system: MDA-MB-435
[25] = test system: NCI-H226 lung
[26] = test system: NCI-H23 lung
[27] = test system: NCI-H460 lung
[28] = test system: NCI-H522 lung
[29] = test system: NCI/ADR-RES ovarian
[30] = test system: OVCAR-3 ovarian
[31] = test system: OVCAR-4 ovarian
[32] = test system: OVCAR-5 ovarian
[33] = test system: OVCAR-8 ovarian
[34] = test system: PC-3 prostate
[35] = test system: RPMI-8226 leukemia
[36] = test system: RXF 393 renal
[37] = test system: SF-268 CNS
[38] = test system: SF-295 CNS
[39] = test system: SF-539 CNS
[40] = test system: SK-MEL-2 melanoma
[41] = test system: SK-MEL-28 melanoma
[42] = test system: SK-MEL-5 melanoma
[43] = test system: SK-OV-3 ovarian
[44] = test system: SN12C renal
[45] = test system: SNB-19 CNS
[46] = test system: SNB-75 CNS
[47] = test system: SR leukemia
[48] = test system: SW-620 colon
[49] = test system: T-47D breast
[50] = test system: TK-10 renal
[51] = test system: U251 CNS
[52] = test system: UACC-257 melanoma
[53] = test system: UACC-62 melanoma
[54] = test system: UO-31 renal
[55] = test system: ACHN renal
[56] = test system: HCC-2998 colon
[57] = test system: HCT-15 colon
[58] = test system: MOLT-4 leukemia

## CN1CCN(Cc2ccc(Nc3ncc(Cl)c(Nc4ccccc4S(=O)(=O)N(C)C)n3)cc2)CC1
[1]
  GI50: 0.0524 µM
  TGI: 1.28 µM
[2]
  GI50: 0.114 µM
  TGI: 0.327 µM
[3]
  GI50: 0.0365 µM
  TGI: 1.7 µM
[4]
  GI50: 0.137 µM
  TGI: 0.374 µM
[5]
  GI50: 0.0377 µM
  TGI: 1.09 µM
[6]
  GI50: < 0.0187 µM
  TGI: > 100 µM
[7]
  GI50: 0.0278 µM
  TGI: 0.222 µM
[8]
  GI50: 0.0516 µM
  TGI: > 100 µM
[9]
  GI50: 0.0317 µM
  TGI: 0.366 µM
[10]
  GI50: < 0.0157 µM
[11]
  GI50: 0.0175 µM
  TGI: 0.198 µM
[12]
  GI50: 0.0344 µM
  TGI: 0.9 µM
[13]
  GI50: 0.0999 µM
  TGI: 1.68 µM
[14]
  GI50: 0.0984 µM
  TGI: 1.18 µM
[15]
  GI50: 0.0308 µM
  TGI: 0.577 µM
[16]
  GI50: 0.0249 µM
  TGI: 1.63 µM
[17]
  GI50: 0.0386 µM
  TGI: > 100 µM
[18]
  GI50: 0.0244 µM
  TGI: > 100 µM
[19]
  GI50: < 0.0143 µM
  TGI: 0.124 µM
[20]
  GI50: 0.0608 µM
  TGI: 0.277 µM
[21]
  GI50: 0.092 µM
  TGI: 0.379 µM
[22]
  GI50: < 0.01 µM
  TGI: 1.17 µM
[23]
  GI50: 0.0222 µM
  TGI: 0.376 µM
[24]
  GI50: 0.0274 µM
  TGI: 0.429 µM
[25]
  GI50: 0.0915 µM
  TGI: 0.859 µM
[26]
  GI50: 0.0338 µM
  TGI: 0.358 µM
[27]
  GI50: < 0.0131 µM
  TGI: 0.198 µM
[28]
  GI50: < 0.0246 µM
  TGI: 0.255 µM
[29]
  GI50: 0.0747 µM
  TGI: 1.24 µM
[30]
  GI50: 0.061 µM
  TGI: > 100 µM
[31]
  GI50: 0.072 µM
  TGI: 0.649 µM
[32]
  GI50: 0.0378 µM
  TGI: > 100 µM
[33]
  GI50: 0.0738 µM
[34]
  GI50: 0.0731 µM
  TGI: > 100 µM
[35]
  GI50: 0.0103 µM
  TGI: 1.24 µM
[36]
  GI50: 0.033 µM
  TGI: 0.122 µM
[37]
  GI50: 0.0997 µM
  TGI: 1.02 µM
[38]
  GI50: 0.0169 µM
  TGI: > 100 µM
[39]
  GI50: 0.114 µM
  TGI: 0.343 µM
[40]
  GI50: 0.0458 µM
  TGI: 0.172 µM
[41]
  GI50: 0.0497 µM
  TGI: 0.415 µM
[42]
  GI50: 0.0759 µM
  TGI: 0.387 µM
[43]
  GI50: 0.219 µM
  TGI: > 100 µM
[44]
  GI50: 0.0399 µM
  TGI: 1.23 µM
[45]
  GI50: 0.0529 µM
  TGI: 2.96 µM
[46]
  GI50: 0.0948 µM
  TGI: 0.308 µM
[47]
  GI50: < 0.01 µM
[48]
  GI50: 0.0254 µM
  TGI: > 100 µM
[49]
  GI50: 0.116 µM
  TGI: 0.965 µM
[50]
  GI50: 0.0819 µM
  TGI: 1.19 µM
[51]
  GI50: 0.038 µM
  TGI: 1.46 µM
[52]
  GI50: 0.0473 µM
  TGI: 0.82 µM
[53]
  GI50: 0.0229 µM
  TGI: 0.18 µM
[54]
  GI50: 0.0387 µM
  TGI: 1.4 µM

## C=C[C@]1(C)C=C2C(=O)[C@@]3(O)OC(=O)[C@@]4(CCCC(C)(C)[C@H]34)[C@@]2(O)CC1
[1]
  GI50: 1.68 µM
  TGI: 3.13 µM
[2]
  GI50: 1.51 µM
  TGI: 3.6 µM
[3]
  GI50: 2.38 µM
  TGI: 7.26 µM
[55]
  GI50: 1.12 µM
  TGI: 2.35 µM
[4]
  GI50: 1.07 µM
  TGI: 2.48 µM
[5]
  GI50: 1.33 µM
  TGI: 3.02 µM
[6]
  GI50: 0.383 µM
  TGI: 10.7 µM
[7]
  GI50: 1.61 µM
  TGI: 2.98 µM
[8]
  GI50: 1.67 µM
  TGI: 3.69 µM
[56]
  GI50: 2.14 µM
  TGI: 3.81 µM
[10]
  GI50: 1.3 µM
  TGI: 2.86 µM
[57]
  GI50: 0.79 µM
  TGI: 3.05 µM
[11]
  GI50: 1.22 µM
  TGI: 4.43 µM
[12]
  GI50: 4.17 µM
  TGI: 15.7 µM
[13]
  GI50: 0.282 µM
  TGI: 1.62 µM
[14]
  GI50: 2.77 µM
  TGI: > 100 µM
[15]
  GI50: 2.12 µM
  TGI: 6.86 µM
[16]
  GI50: 2.16 µM
  TGI: 4.58 µM
[17]
  GI50: 2.13 µM
  TGI: 10.1 µM
[18]
  GI50: 3.42 µM
  TGI: 13.8 µM
[19]
  GI50: 1.72 µM
  TGI: 3.24 µM
[20]
  GI50: 1.79 µM
  TGI: 3.82 µM
[21]
  GI50: 0.926 µM
  TGI: 2.8 µM
[22]
  GI50: 1.42 µM
  TGI: 6.96 µM
[23]
  GI50: 1.46 µM
  TGI: 3.43 µM
[24]
  GI50: 1.76 µM
  TGI: 4.42 µM
[58]
  GI50: 1.74 µM
  TGI: 7.53 µM
[25]
  GI50: 5.14 µM
  TGI: 26.1 µM
[26]
  GI50: 2.14 µM
  TGI: 5.29 µM
[27]
  GI50: 3.39 µM
  TGI: 13.9 µM
[28]
  GI50: 0.57 µM
  TGI: 2.03 µM
[29]
  GI50: 2.89 µM
  TGI: > 100 µM
[30]
  GI50: 1.08 µM
  TGI: 2.52 µM
[31]
  GI50: 1.05 µM
  TGI: 2.87 µM
[32]
  GI50: 1.97 µM
  TGI: 3.85 µM
[33]
  GI50: 1.69 µM
  TGI: 5.63 µM
[34]
  GI50: 1.45 µM
  TGI: 5.08 µM
[35]
  GI50: 1.13 µM
  TGI: 8.17 µM
[36]
  GI50: 0.608 µM
  TGI: 1.91 µM
[37]
  GI50: 1.89 µM
  TGI: 4.69 µM
[38]
  GI50: 4.43 µM
  TGI: 17.8 µM
[39]
  GI50: 1.37 µM
  TGI: 2.76 µM
[40]
  GI50: 2.27 µM
  TGI: 5.02 µM
[41]
  GI50: 1.67 µM
  TGI: 3.22 µM
[42]
  GI50: 1.58 µM
  TGI: 2.97 µM
[43]
  GI50: 4.65 µM
  TGI: 17 µM
[44]
  GI50: 1.96 µM
  TGI: 4.82 µM
[45]
  GI50: 6.33 µM
  TGI: 19.7 µM
[46]
  GI50: 1.09 µM
  TGI: 2.45 µM
[47]
  GI50: 1.03 µM
  TGI: 8.5 µM
[48]
  GI50: 0.955 µM
  TGI: 3.36 µM
[49]
  GI50: 1.09 µM
  TGI: 3.49 µM
[50]
  GI50: 1.49 µM
  TGI: 2.92 µM
[51]
  GI50: 2.21 µM
  TGI: 5.68 µM
[52]
  GI50: 1.33 µM
  TGI: 2.91 µM
[53]
  GI50: 1.37 µM
  TGI: 2.92 µM
[54]
  GI50: 1.31 µM
  TGI: 2.66 µM
